Experimental data: patent publication US6942963B1, “Methods for identifying treatments for neurotoxicity in Alzheimer's disease caused by β-amyloid peptides” (Massachusetts Institute of Technology, priority 1997, dated 2005)
“Also recorded” adds a separate entry of the source. Like-named read-outs stand apart in the source and are kept apart here. Non-standard residues stand in square brackets, D forms with d. Residues, ends and D or L forms follow the SMILES beside them.

Columns and labels:
hNT cells [1] = assay: Membrane depolarization of hNT cells by aggregated Aβ1-42 (DiBAC4(3) fluorescence); format: cell-based, human; settings: for inhibition of membrane depolarization by aggregated Aβ1-42: simultaneous presence, separately or together, summary statement
Procedure: Changes in membrane potential were measured using the fluorescent potentiometric probe DiBAC4(3), (Molecular Probes, Inc., Eugene, Oreg.). This dye, bis-(1,3-dibutylbarbituric acid)trimethine oxonol, detects membrane depolarization, because it enters depolarized cells and binds to intracellular proteins or membranes. […] Hyperpolarization results in extrusion of the anionic dye and thus a decrease in fluorescence. Our measurements use two dyes, fura-2 and DiBAC4(3), since these dyes have excitation wavelengths that are far apart, but have similar emission wavelengths. DiBAC4(3) was added to fura-2AM loaded hNT cells at a concentration of 100 nM in Tyr2Ca. Rapidly alternating measurements of fura-2 (excited at 340 & 380 nm) and DiBAC4(3) (excited at 490 nm) were performed using emission at 516 nm. Both dyes were measured using the special “Fura2-Fluo3” filter set 7400 from Chroma Technology (Brattleboro, Vt.), a Zeiss Axiovert 100 inverted microscope and a photometry system (model “Delta Ram” from Photon Technology International, Inc., Monmouth Junction, N.J.).
The bis-oxonol dye DiBAC4(3) was used as an indicator of transmembrane electrical potential changes (Langheinrich and Daut, J. Physiol. 502:397-408, 1997) when our hNT cells were treated with, for example, the β-amyloid peptide Aβ1-42. The use of this dye enabled us to monitor groups of 5-15 neurons, rather than single cells as would be the case with patch clamping methods. We expected great variability from cell to cell, as was found in our earlier patch clamp work (Sanderson et al., Brain Res. 744:7-14, 1997). The method has been used by many laboratories for the determination of membrane potentials in different cell types. Fluorescence is increased upon membrane depolarization as more dye enters the cytosol, resulting in increased binding to proteins (Braiuner et al., Biochim. Biophys. Acta 771:[…], 1984). Partitioning of bis-oxonol dye between the plasma membrane and the cytosol follows the Nernst equation (Langheinrich and Daut, 1997). Unless otherwise indicated, all measurements were carried out in Tyrode's solution containing 2 mM Ca.
We calibrated the gross fluorescence as a function of membrane potential by treating a culture of hNT neurons, bathed in Tyrode's 2Ca buffer with the usual 3 mM K^+, containing 97 nM DiBAC4(3), with Tyrode's 2Ca buffer containing 40 mM KCl. We measured the gross fluorescence at excitation=490 nm and emission=510 nm for the depolarization by KCl and for depolarization by the Aβ1-42 peptide. We used the formula proposed by Langheinrich and Daut, 1997: % ΔF=(1−Fmin/Fmax)*100=ΔEMmV
where Fmin=fluorescence before treatment, Fmax=fluorescence during treatment, ΔEM mV is the change in membrane potential brought about by the treatment. The calculation based on the expected depolarization by changing from 3 mM KCl to 40 MM KCl gave a value of ΔEM=3.8 mV/1% ΔF.
Groups of hNT neuronal cells (5-17) were exposed to Aβ1-42 (20 μM) that had been incubated at 37° C. for 48 hours; 97 nM DiBAC4(3) was present. Fluorescence was measured as described above; Ex=490 nm, Em=510 nm.

[2] = tested on: βAP1-42-induced calcium influx, hNT cells; assay: βAP1-42 (Aβ1-42) aggregate-induced calcium influx in hNT cells: effect of decoy peptides and channel blockers; format: cell-based, human; settings: for inhibition of calcium influx caused by aggregated Aβ1-42: summary statement, concentration not given; for effect on βAP1-42 calcium influx: βAP1-42 25 μM coincubated with equimolar decoy peptide at 37° C. for 44 hours
[3] = tested on: βAP25-35-induced calcium influx, hNT cells; assay: βAP25-35-induced calcium influx in hNT cells: effect of channel antagonists and decoy peptides; format: cell-based, human; settings: for effect on increase in internal calcium concentration due to βAP25-35: decoy peptide mixed with βAP25-35 at ratio 1:1 (20 μM+20 μM), hNT cells; for effect on βAP25-35 calcium influx at molar ratio: filtered stocks
hNT cells [4] = assay: Internal calcium concentration [Ca2+]int in hNT cells (fura-2) on exposure to β-amyloid peptide or test agent alone; format: cell-based, human; settings: hNT cells, decoy peptide alone at 20 μM, filtered stocks, Tyrode's/2 mM Ca
[5] = format: physicochemical; settings: water
[6] = tested on: voltage-gated calcium channels; assay: Previous patch-clamp experiments on β-amyloid peptide calcium influx; format: cell-based
βAP25-35 = target: T1, βAP25-35 (Homo sapiens, UniProt P05067); assay: Aggregation rate of βAP25-35 by light scattering at 500 nm; format: biochemical; settings: decoy peptide at approximately equimolar concentration, Tyrode's/2 mM Ca^2+, light scattering 500 nm
T1 construct: made in house; host or cells: chemical peptide synthesis (BioPolymers Laboratory, MIT), HPLC purified

βAP1-42 = target: T2, βAP1-42 (Homo sapiens, UniProt P05067); assay: Aggregation rate of βAP1-42 by light scattering at 500 nm; format: biochemical; settings: decoy peptide at 1:1 molar ratio, Tyrode's/2 mM Ca^2+, light scattering 500 nm
T2 construct: βAP1-42 (Aβ1-42); purchased Quality Control Biochemicals; host or cells: synthetic peptide
T2 sequence (P05067 672-713): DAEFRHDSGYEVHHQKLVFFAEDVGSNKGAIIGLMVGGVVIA

[7] = aggregated Aβ1-42 20 μM plus the named addition, [Ca^2+] 2 mM, Na^+

## N#Cc1cc2c(cc1[N+](=O)[O-])=NC(=O)C(=O)N=2 [CNQX, 6-cyano-7-nitroquinoxaline-2,3-dione]
hNT cells [1]; [7]
  % ΔF in presence of addition: 17.0%
  Δ EM in presence of addition: +64.6 mV
hNT cells [1]; hNT cells, CNQX (20 μM) added after Aβ1-42aggr
  effect on membrane depolarization (DiBAC4(3) fluorescence plateau) by aggregated Aβ1-42: little change in fluorescence; also recorded: remained unchanged; also recorded: did not significantly change fluorescence
hNT cells [1]
  inhibition of membrane depolarization by aggregated Aβ1-42: not inhibited
[2]; hNT cells, aggregated Aβ1-42, 20 μM CNQX added after desensitization
  effect on calcium influx / cytosolic calcium caused by aggregated Aβ1-42: completely inhibited; also recorded: lowers the remaining calcium level to the original control value
[2]
  inhibition of calcium influx caused by aggregated Aβ1-42: inhibited
[3]; cells first exposed to 21 μM βAP25-35 (270% of control), then βAP25-35 plus CNQX 22 μM
  [Ca^2+]int when antagonist added after βAP25-35 exposure: fell to control levels
[3]; concentration not stated
  block of calcium influx into hNT neuronal cells caused by βAP25-35: can be blocked
[3]; βAP25-35 21 μM, CNQX at 22 μM, applied together
  effect on βAP25-35-induced calcium influx: completely prevented

## CC[C@@H](C)[C@@H](N)C(=O)N[C@H](C)C(=O)N[C@H](C)C(=O)NCC(=O)N[C@@H](C(=O)N[C@@H](C(=O)NCC(=O)NCC(=O)NCC(=O)O)[C@H](C)O)[C@H](C)CC [DP1, ^+NH3-IAAGITGGG-COO^−] (H-[dI][dA][dA]G[dI][dT]GGG-OH)
hNT cells [4]
  effect of decoy peptide by itself on cytosolic calcium concentrations: raise cytosolic calcium concentrations somewhat
[3]
  effect on increase in internal calcium concentration due to βAP25-35: reduced or abolished the increase in the internal calcium concentration
[5]
  solubility: water soluble

## NC1=N[C@H](O)[C@H]2[C@H]3O[C@]4(O)O[C@@H]([C@@H](O)[C@@]2(N1)[C@@H]4O)[C@]3(O)CO [TTX, tetrodotoxin]
hNT cells [1]
  % ΔF in presence of addition: 17.3%
  effect on membrane depolarization by aggregated Aβ1-42: allowed both membrane depolarization and a rise in cytosolic calcium levels; also recorded: allows both membrane depolarization
  Δ EM in presence of addition: +65.7 mV
[2]
  effect on rise in cytosolic calcium caused by aggregated Aβ1-42: allowed both membrane depolarization and a rise in cytosolic calcium levels; also recorded: the rise in cytosolic calcium

## [Cl][Cd][Cl] [cadmium chloride]
hNT cells [1]
  effect on membrane depolarization by aggregated Aβ1-42: did not prevent membrane depolarization
[6]
  block of β-amyloid peptide calcium influx: did not block the calcium influx

## D-AP5
hNT cells [1]; [7]
  % ΔF in presence of addition: 10.4%
  Δ EM in presence of addition: +39.5 mV
hNT cells [1]; hNT cells, D-AP5 50 μM
  effect on membrane depolarization by aggregated Aβ1-42: did not interfere with the depolarization phenomenon; also recorded: does not block membrane depolarization
hNT cells [1]
  inhibition of membrane depolarization by aggregated Aβ1-42: not inhibited
[2]; hNT cells, aggregated 20 μM Aβ1-42, D-AP5 50 μM
  effect on calcium influx caused by aggregated Aβ1-42: largely, but not completely, abolished calcium influx; also recorded: does inhibit calcium influx
[2]
  inhibition of calcium influx caused by aggregated Aβ1-42: inhibited

## ^+NH3-TVIR^+TIAAA-COO^− (TVIRTIAAA) [DP8]
hNT cells [4]
  effect of decoy peptide by itself on cytosolic calcium concentrations: no effect on cytosolic calcium concentrations
[2]; hNT cells
  effect on βAP1-42 calcium influx: reduced or abolished the effect of βAP1-42 on the calcium influx
[3]; DP8:βAP25-35 0.2:1 (5 mM DP8+20 mM βAP25-35)
  effect on βAP25-35 calcium influx at molar ratio: modestly reduced
[3]; DP8:βAP25-35 1:1 (10 mM DP8+10 mM βAP25-35)
  effect on βAP25-35 calcium influx at molar ratio: reduce or abolish the effect of the β-amyloid peptide
[3]; DP8:βAP25-35 2:1 (20 mM DP8+11 mM βAP25-35)
  effect on βAP25-35 calcium influx at molar ratio: reduce or abolish the effect of the β-amyloid peptide
[3]
  effect on increase in internal calcium concentration due to βAP25-35: reduced or abolished the increase in the internal calcium concentration
βAP25-35
  effect on aggregation rate of βAP25-35: did not reduce the aggregation rate of βAP25-35

## ^+NH3.T.P.I.R^+.T.P.A.P.A.COO^− (H-[dT][dP][dI][dR][dT][dP][dA][dP][dA]-OH; also: modified) [DP16]
βAP1-42
  reduction of aggregation rate of βAP1-42: about 50%
[2]; hNT cells
  effect on βAP1-42 calcium influx: reduced or abolished the effect of βAP1-42 on the calcium influx
βAP25-35
  effect on aggregation rate of βAP25-35: reduced the aggregation rate of βAP25-35
